Test results reported in patent US20250032651A1, “[177LU] LUTETIUM-PSMA I&T COMPOSITION AND DOSIMETRY, KIT, METHOD OF MAKING, AND METHOD OF USING THEREOF” (Curium US LLC, priority 2022, published 2025).

Test: Normal organ dosimetry Cycle 1: SPECT/CT, TIACs, OLINDA 2.2.3 absorbed radiation dose
Format: in vivo, human
Conditions: for Absorbed Dose, min / Absorbed Dose, Mean / Absorbed Dose, max / Absorbed Dose, median: Cycle 1
Experimental: This Example presents the biodistribution, dosimetry, and pharmacokinetics (PK) results of a PK/Dosimetry sub-study performed as part of a Phase III trial. Twenty-seven (27) patients were administered a target activity of 7.4±10% GBq of ^177Lu-PSMA-I&T and underwent single photon emission computed tomography (SPECT)/computed tomography (CT) imaging at four timepoints (4 h, 24 h, 48 h, and 168 h). Image data was analysed to compute time-activity curves (TACs) and subsequently time-integrated activity coefficients (TIACs) in each organ of interest and in organs showing appreciable and meaningful ^177Lu-PSMA-I&T activity. Organ Level Internal Dose Assessment (OLINDA 2.2.3) was used to compute organ and whole body absorbed radiation doses for each patient.
All participating sites underwent a rigorous site setup process during which all dose calibrators, scanners, and gamma counters used in the sub-study were calibrated. Sites were allowed to enroll patients in the sub-study only after the completion and approval of all site setup processes by Invicro. Patients underwent SPECT/CT imaging, with anatomical coverage typically extending from the salivary glands to the pelvis, following the administration of a targeted 7.4±10% GBq of ^177Lu-PSMA-I&T at cycle 1. SPECT/CT imaging was performed at four timepoints: 4 h, 24 h, 48 h, and 168 h post-injection. Additionally, a subset of patients imaged at Cycle 1 (16 out of 27), were also imaged at Cycle 3 (Table 2).
The imaging data was analyzed using Invicro's VivoQuant software, a validated software used in a 21 CFR § 11-compliant workflow. The general quantification approach was based on the principles detailed in the Medical Internal Radiation Dose (MIRD) Pamphlet No. 16, No 23, and No 26 as appropriate.
Volume of interest (VOI) (kidneys, bladder, liver, lumbar vertebrae L2-L4, lacrimal glands, salivary glands [parotid and submandibular glands], and whole body) were delineated on each dataset by a trained image analyst. […] Organs were segmented either by drawing the entire contour of the organ, or by placing a sphere in a representative region of the organ and then multiplying by the organ's effective mass (based on patient's height and weight). Segmentation methods for each organ are specified in Table 3 and were consistently applied to each patient.
Clearance of the radiopharmaceutical was derived from a data-appropriate fit of each organ's TAC. Depending on the TAC's shape, the data was fitted with the sum of one, two, or three exponentials, or using a rise and fall model. Fitting was performed with in-house Python software. TIACs were calculated through analytical integration of the curve fit extrapolated to infinity. […] A whole-body TAC was derived from delineating the imaged body. The remainder activity was determined by subtracting the cumulative organ TIACs from the whole body TIAC.
Organ TIACs were input into OLINDA 2.2.3 for the computation of organ and whole-body absorbed doses, using International Commission on Radiological Protection (ICRP)-103 weighing factors. The ICRP-89 derived male phantom was used for dose estimation. Organs and body mass as defined by ICRP-89 were scaled based on height and mass using patient effective mass.^4 The voiding bladder model as implemented in OLINDA was used to determine bladder TIAC, assuming a voiding interval of 4 hours. The human alimentary tract model (HAT model) described in ICRP 100 and implemented in OLINDA was used to compute doses to the small intestine, right colon, left colon and rectum for patients showing clearance through the GI tract. The fraction of injected activity (fIA) cleared via the GI tract was determined by taking the peak fIA in the GI tract over all the imaging timepoints. […] The Red Marrow mass in L2-L4 was assumed to be 6.7% of the total red marrow mass.

[1] = Prostate, 16 patients imaged at cycle 1 and 3
[2] = Rectum, 16 patients imaged at cycle 1 and 3
[3] = Red Marrow, 16 patients imaged at cycle 1 and 3
[4] = Right Colon, 16 patients imaged at cycle 1 and 3
[5] = Salivary Glands, 16 patients imaged at cycle 1 and 3
[6] = Salivary Glands, n = 26, patient 12-004 excluded
[7] = Small intestine, 16 patients imaged at cycle 1 and 3
[8] = Spleen, 16 patients imaged at cycle 1 and 3
[9] = Stomach Wall, 16 patients imaged at cycle 1 and 3
[10] = Testes, 16 patients imaged at cycle 1 and 3
[11] = Thymus, 16 patients imaged at cycle 1 and 3
[12] = Thyroid, 16 patients imaged at cycle 1 and 3
[13] = Total Body, 16 patients imaged at cycle 1 and 3
[14] = Urinary Bladder wall, 16 patients imaged at cycle 1 and 3

O=C([O-])CC[C@H](NC(=O)N[C@@H](CCCCNC(=O)CCCCCCC(=O)NCCCC[C@@H](NC(=O)[C@@H](Cc1ccccc1)NC(=O)[C@@H](Cc1ccc(O)c(I)c1)NC(=O)CC[C@H](C(=O)[O-])N1CCN(CC(=O)[O-])CCN(CC(=O)[O-])CCN(CC(=O)[O-])CC1)C(=O)[O-])C(=O)[O-])C(=O)[O-].[177Lu+3].[H+].[H+].[H+].[H+].[H+] [^177Lu-PSMA I&T, (3S,7S,26R,29R,32R,37R)-29-benzyl-32-(4-hydroxy-3-iodobenzyl)-5,13,20,28,31,34-hexaoxo-37-(4,7,10-tris(carboxymethyl)-1,4,7,10-tetraazacyclododecan-1-yl)-4,6,12,21,27,30,33-heptaazaheptatriacontane-1,3,7,26,37-pentacarboxylic acid; lutetium-177 (III)]
0.03 Gy/GBq: Absorbed Dose, median (Red Marrow, n = 26) | Absorbed Dose in Cycle 1, min [5] | Absorbed Dose, min [6] | Absorbed Dose in Cycle 1, min (Salivary Glands, N = 16) | Absorbed Dose in Cycle 1, Mean [8] | Absorbed Dose, Mean (Spleen, n = 26) | Absorbed Dose in Cycle 1, Mean (Spleen, N = 16)
0.00 Gy/GBq: Absorbed Dose, min (Pancreas, n = 26) | Absorbed Dose in Cycle 1, min (Pancreas, N = 16) | Absorbed Dose in Cycle 1, min [3] | Absorbed Dose, min (Red Marrow, n = 26) | Absorbed Dose in Cycle 1, min (Red Marrow, N = 16) | Absorbed Dose in Cycle 1, min [9] | Absorbed Dose, min (Stomach Wall, n = 26) | Absorbed Dose in Cycle 1, min (Stomach Wall, N = 16) | Absorbed Dose in Cycle 1, min [10] | Absorbed Dose, min (Testes, n = 26) | Absorbed Dose in Cycle 1, min (Testes, N = 16) | Absorbed Dose in Cycle 1, min [11] | Absorbed Dose, min (Thymus, n = 26) | Absorbed Dose in Cycle 1, min (Thymus, N = 16) | Absorbed Dose in Cycle 1, min [12] | Absorbed Dose, min (Thyroid, n = 26) | Absorbed Dose in Cycle 1, min (Thyroid, N = 16)
0.28 Gy/GBq: Absorbed Dose in Cycle 1, max [3] | Absorbed Dose in Cycle 1, max (Red Marrow, N = 16) | Absorbed Dose in Cycle 1, Mean [4] | Absorbed Dose in Cycle 1, Mean (Right Colon, N = 16)
0.04 Gy/GBq: Absorbed Dose, median (Small intestine, n = 26)
0.17 Gy/GBq: Absorbed Dose in Cycle 1, Mean [5] | Absorbed Dose in Cycle 1, Mean (Salivary Glands, N = 16)
0.41 Gy/GBq: Absorbed Dose, Mean (Urinary Bladder wall, n = 26) | Absorbed Dose, median (Urinary Bladder wall, n = 26)
0.07 Gy/GBq: Absorbed Dose in Cycle 1, max (Pancreas, N = 16) | Absorbed Dose in Cycle 1, max [1] | Absorbed Dose, max (Prostate, n = 26) | Absorbed Dose in Cycle 1, max (Prostate, N = 16) | Absorbed Dose in Cycle 1, max [9] | Absorbed Dose, max (Stomach Wall, n = 26) | Absorbed Dose in Cycle 1, max (Stomach Wall, N = 16) | Absorbed Dose in Cycle 1, max [10] | Absorbed Dose, max (Testes, n = 26) | Absorbed Dose in Cycle 1, max (Testes, N = 16) | Absorbed Dose in Cycle 1, max [11] | Absorbed Dose, max (Thymus, n = 26) | Absorbed Dose in Cycle 1, max (Thymus, N = 16) | Absorbed Dose in Cycle 1, max [12] | Absorbed Dose, max (Thyroid, n = 26) | Absorbed Dose in Cycle 1, max (Thyroid, N = 16)
10.40 Gy/GBq: Absorbed Dose in Cycle 1, Mean (Urinary Bladder wall, N = 16)
0.06 Gy/GBq: Absorbed Dose in Cycle 1, Mean [7] | Absorbed Dose in Cycle 1, Mean (Small intestine, N = 16)
0.22 Gy/GBq: Absorbed Dose, median (Right Colon, n = 26)
0.08 Gy/GBq: Absorbed Dose, Mean (Red Marrow, n = 26)
0.02 Gy/GBq: Absorbed Dose in Cycle 1, Mean (Pancreas, N = 16) | Absorbed Dose in Cycle 1, Mean [1] | Absorbed Dose, Mean (Prostate, n = 26) | Absorbed Dose in Cycle 1, Mean (Prostate, N = 16) | Absorbed Dose, median (Spleen, n = 26) | Absorbed Dose in Cycle 1, Mean [9] | Absorbed Dose, Mean (Stomach Wall, n = 26) | Absorbed Dose in Cycle 1, Mean (Stomach Wall, N = 16) | Absorbed Dose in Cycle 1, Mean [13] | Absorbed Dose, Mean (Total Body, n = 26) | Absorbed Dose, median (Total Body, n = 26) | Absorbed Dose in Cycle 1, Mean (Total Body, N = 16)
0.05 Gy/GBq: Absorbed Dose in Cycle 1, Mean [3] | Absorbed Dose in Cycle 1, Mean (Red Marrow, N = 16) | Absorbed Dose, Mean (Small intestine, n = 26)
0.44 Gy/GBq: Absorbed Dose, Mean (Rectum, n = 26)
0.40 Gy/GBq: Absorbed Dose in Cycle 1, Mean [14]
0.25 Gy/GBq: Absorbed Dose, Mean (Right Colon, n = 26)
0.15 Gy/GBq: Absorbed Dose, median [6] | Absorbed Dose in Cycle 1, max [7] | Absorbed Dose, max (Small intestine, n = 26) | Absorbed Dose in Cycle 1, max (Small intestine, N = 16)
0.09 Gy/GBq: Absorbed Dose in Cycle 1, max [13] | Absorbed Dose, max (Total Body, n = 26) | Absorbed Dose in Cycle 1, max (Total Body, N = 16)
0.11 Gy/GBq: Absorbed Dose in Cycle 1, max [8] | Absorbed Dose, max (Spleen, n = 26) | Absorbed Dose in Cycle 1, max (Spleen, N = 16)
1.46 Gy/GBq: Absorbed Dose in Cycle 1, max [2] | Absorbed Dose, max (Rectum, n = 26) | Absorbed Dose in Cycle 1, max (Rectum, N = 16)
0.33 Gy/GBq: Absorbed Dose in Cycle 1, min [14] | Absorbed Dose, min (Urinary Bladder wall, n = 26) | Absorbed Dose in Cycle 1, min (Urinary Bladder wall, N = 16)
0.80 Gy/GBq: Absorbed Dose in Cycle 1, max [5] | Absorbed Dose, max [6] | Absorbed Dose in Cycle 1, max (Salivary Glands, N = 16)
0.47 Gy/GBq: Absorbed Dose in Cycle 1, max [14] | Absorbed Dose in Cycle 1, max (Urinary Bladder wall, N = 16)
0.50 Gy/GBq: Absorbed Dose in Cycle 1, Mean [2] | Absorbed Dose in Cycle 1, Mean (Rectum, N = 16) | Absorbed Dose, max (Urinary Bladder wall, n = 26)
0.49 Gy/GBq: Absorbed Dose, max (Red Marrow, n = 26)
0.82 Gy/GBq: Absorbed Dose in Cycle 1, max [4] | Absorbed Dose, max (Right Colon, n = 26) | Absorbed Dose in Cycle 1, max (Right Colon, N = 16)
0.01 Gy/GBq: Absorbed Dose in Cycle 1, min [1] | Absorbed Dose, median (Prostate, n = 26) | Absorbed Dose, min (Prostate, n = 26) | Absorbed Dose in Cycle 1, min (Prostate, N = 16) | Absorbed Dose in Cycle 1, min [2] | Absorbed Dose, min (Rectum, n = 26) | Absorbed Dose in Cycle 1, min (Rectum, N = 16) | Absorbed Dose in Cycle 1, min [4] | Absorbed Dose, min (Right Colon, n = 26) | Absorbed Dose in Cycle 1, min (Right Colon, N = 16) | Absorbed Dose in Cycle 1, min [7] | Absorbed Dose, min (Small intestine, n = 26) | Absorbed Dose in Cycle 1, min (Small intestine, N = 16) | Absorbed Dose in Cycle 1, min [8] | Absorbed Dose, min (Spleen, n = 26) | Absorbed Dose in Cycle 1, min (Spleen, N = 16) | Absorbed Dose, median (Stomach Wall, n = 26) | Absorbed Dose in Cycle 1, Mean [10] | Absorbed Dose, Mean (Testes, n = 26) | Absorbed Dose, median (Testes, n = 26) | Absorbed Dose in Cycle 1, Mean (Testes, N = 16) | Absorbed Dose in Cycle 1, Mean [11] | Absorbed Dose, Mean (Thymus, n = 26) | Absorbed Dose, median (Thymus, n = 26) | Absorbed Dose in Cycle 1, Mean (Thymus, N = 16) | Absorbed Dose in Cycle 1, Mean [12] | Absorbed Dose, Mean (Thyroid, n = 26) | Absorbed Dose, median (Thyroid, n = 26) | Absorbed Dose in Cycle 1, Mean (Thyroid, N = 16) | Absorbed Dose in Cycle 1, min [13] | Absorbed Dose, min (Total Body, n = 26) | Absorbed Dose in Cycle 1, min (Total Body, N = 16)
0.39 Gy/GBq: Absorbed Dose, median (Rectum, n = 26)
0.19 Gy/GBq: Absorbed Dose, Mean [6]
